This note sets out measurements from US8772288B2, “Substituted spiro[cycloalkyl-1,3′-indo]-2′(1′H)-one derivatives and their use as P38 mitogen-activated kinase inhibitors” (Almirall, S.A., priority 2008, dated 2014).

The target in this assay is human p38alfa (SAPKa) enzyme (Homo sapiens (Human), UniProt Q16539). Description: Inhibition Assay: p38 enzymatic activity (ATF2 phosphorylation, FRET). The assay is classed as biochemical. The following applies: read-out: p38α IC50.
Chain of human p38alfa (SAPKa) enzyme (Q16539 whole entry): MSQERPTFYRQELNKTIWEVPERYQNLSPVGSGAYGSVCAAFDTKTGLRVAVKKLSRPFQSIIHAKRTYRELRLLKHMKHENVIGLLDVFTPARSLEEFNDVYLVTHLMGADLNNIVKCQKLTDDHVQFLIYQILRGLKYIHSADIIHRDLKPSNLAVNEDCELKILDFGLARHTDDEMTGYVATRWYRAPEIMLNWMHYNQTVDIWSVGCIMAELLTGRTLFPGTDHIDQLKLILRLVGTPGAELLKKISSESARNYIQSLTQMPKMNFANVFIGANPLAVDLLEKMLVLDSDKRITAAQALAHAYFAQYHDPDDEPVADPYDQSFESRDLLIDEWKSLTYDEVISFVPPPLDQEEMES

Regarding `Cc1nnc(-c2ccc(C)c(-c3ccc4c(c3)NC(=O)C43CCC(O)CC3)c2)o1` (stereo not drawn) [Example 73, 4-hydroxy-6′-(2-methyl-5-(5-methyl-1,3,4-oxadiazol-2-yl)phenyl)spiro[cyclohexane-1,3′-indolin]-2′-one], the IC50 is 5.7 nM.

As for `Cc1ccc(C(=O)Nc2ccon2)cc1-c1ccc2c(c1)NC(=O)C2(C)C` [Example 19, 3-(3,3-Dimethyl-2-oxo-2,3-dihydro-1H-indol-6-yl)-N-isoxazol-3-yl-4-methylbenzamide], the half-maximal inhibitory concentration (IC50) was determined as 0.04 nM. Turning to `Cc1ccc(C(=O)NC2CC2)cc1-c1cc2c(cn1)C1(CCCC1)C(=O)N2` [Example 51, N-Cyclopropyl-4-methyl-3-(2′-oxo-1′,2′-dihydrospiro[cyclopentane-1,3′-pyrrolo[3,2-c]pyridin]-6′-yl)benzamide], the IC50 is 0.8 nM. As for `Cc1c(F)cc(C(=O)NC2CC2)cc1-c1ccc2c(c1)NC(=O)C21CCN(S(C)(=O)=O)CC1` [Example 31, N-cyclopropyl-3-fluoro-4-methyl-5-(1′-(methylsulfonyl)-2-oxospiro[indoline-3,4′-piperidine]-6-yl)benzamide], the figure is 1 nM. To `Cc1ccc(C(=O)NC2CC2)cc1-c1ccc2c(c1)NC(=O)C21CCC(F)(F)CC1` [Example 32, N-Cyclopropyl-3-(4,4-difluoro-2′-oxospiro[cyclohexane-1,3′-indoline]-6′-yl)-4-methylbenzamide] belongs 1.8 nM; to `Cc1ccc(C(=O)NC2CC2)cc1-c1ccc2c(c1)NC(=O)C21CCC(O)CC1` (stereo not drawn) [Example 34, N-cyclopropyl-3-(4-hydroxy-2′-oxospiro[cyclohexane-1,3′-indoline]-6′-yl)-4-methylbenzamide], 1.4 nM; to `Cc1ccc(C(=O)NC2CC2)cc1-c1ccc2c(c1)NC(=O)C21CCC(C)(O)CC1` (stereo not drawn) [Example 37, N-cyclopropyl-3-(4-hydroxy-4-methyl-2′-oxospiro[cyclohexane-1,3′-indoline]-6′-yl)-4-methylbenzamide], 0.8 nM. To `Cc1nnc(-c2ccc(C)c(-c3ccc4c(c3)NC(=O)C43CCC(F)(F)CC3)c2)o1` [Example 72, 4,4-Difluoro-6′-(2-methyl-5-(5-methyl-1,3,4-oxadiazol-2-yl)phenyl)spiro-[cyclohexane-1,3′-indolin]-2′-one] belongs 5.6 nM; to `Cc1ccc(C(=O)Nc2ccon2)cc1-c1ccc2c(c1)NC(=O)C21CCOCC1` [Example 23, N-Isoxazol-3-yl-4-methyl-3-(2-oxo-1,2,2′,3′,5′,6′-hexahydrospiro[indole-3,4′-pyran]-6-yl)benzamide], 0.06 nM.

In the case of `Cc1nnc(-c2ccc(C)c(-c3ccc4c(c3)NC(=O)C43CCCC3)c2)o1` [Example 70, 6′-(2-Methyl-5-(5-methyl-1,3,4-oxadiazol-2-yl)phenyl)spiro[cyclopentane-1,3′-indolin]-2′-one], the concentration for half-maximal inhibition (IC50) turned out to be 32 nM.

Turning to `Cc1ccc(C(N)=O)cc1-c1ccc2c(c1)NC(=O)C2(C)C` [Example 7, 3-(3,3-dimethyl-2-oxoindolin-6-yl)-4-methylbenzamide], the half-maximal inhibitory concentration (IC50) worked out at 80 nM. To `Cc1ccc(C(=O)NC2CC2)cc1-c1ccc2c(n1)NC(=O)C21CCCC1` [Example 43, N-Cyclopropyl-4-methyl-3-(2′-oxo-1′,2′-dihydrospiro[cyclopentane-1,3′-pyrrolo[2,3-b]pyridine]-6′-yl)benzamide] belongs 5.6 nM; to `Cc1nnc(-c2cc(F)c(C)c(-c3ccc4c(c3)NC(=O)C43CCC(C)(O)CC3)c2)[nH]1` (stereo not drawn) [Example 65, 6′-(3-fluoro-2-methyl-5-(5-methyl-4H-1,2,4-triazol-3-yl)phenyl)-4-hydroxy-4-methylspiro[cyclohexane-1,3′-indolin]-2′-one], 8 nM. For `Cc1ccc(C(=O)NC2CC2)cc1-c1ccc2c(c1)NC(=O)C21CCOCC1` [Example 22, N-Cyclopropyl-4-methyl-3-(2-oxo-2′,3′,5′,6′-tetrahydrospiro[indoline-3,4′-pyran]-6-yl)benzamide], the IC50 stood at 1.4 nM. To `Cc1ccc(C(=O)NC2CC2)cc1-c1ccc2c(c1)NC(=O)C21CCS(=O)(=O)CC1` [Example 27, N-Cyclopropyl-3-(1′,1′-dioxido-2-oxo-1,2,2′,3′,5′,6′-hexahydrospiro[indole-3,4′-thiopyran]-6-yl)-4-methylbenzamide] belongs 6.7 nM; to `Cc1nnc(-c2ccc(C)c(-c3ccc4c(c3)NC(=O)C43CCN(S(C)(=O)=O)CC3)c2)[nH]1` [Example 67, 6-(2-methyl-5-(5-methyl-4H-1,2,4-triazol-3-yl)phenyl)-1′-(methylsulfonyl)spiro[indoline-3,4′-piperidin]-2-one], 4.7 nM. To `Cc1ccc(-c2ncn[nH]2)cc1-c1ccc2c(c1)NC(=O)C21CCCC1` [Example 55, 6′-(2-Methyl-5-(4H-1,2,4-triazol-3-yl)phenyl)spiro[cyclopentane-1,3′-indolin]-2′-one] belongs 9 nM; to `Cc1nnc(-c2cc(F)c(C)c(-c3ccc4c(c3)NC(=O)C43CCOCC3)c2)[nH]1` [Example 61, 6-[3-Fluoro-2-methyl-5-(5-methyl-4H-1,2,4-triazol-3-yl)phenyl]-2′,3′,5′,6′-tetrahydro-spiro[indole-3,4′-pyran]-2(1H)-one], 8 nM; to `Cc1ccc(C(=O)NC2CC2)cc1-c1cnc2c(c1)NC(=O)C2(C)C` [Example 45, N-Cyclopropyl-3-(3,3-dimethyl-2-oxo-2,3-dihydro-1H-pyrrolo[3,2-b]pyridin-6-yl)-4-methylbenzamide], 62 nM. As for `Cc1ccc(C(=O)NCC2CC2)cc1-c1ccc2c(c1)NC(=O)C2(C)C` [Example 18, N-(Cyclopropylmethyl)-3-(3,3-dimethyl-2-oxoindolin-6-yl)-4-methylbenzamide], the figure is 27 nM; as for `Cc1nnc(-c2ccc(C)c(-c3ccc4c(c3)NC(=O)C43CCC3)c2)[nH]1` [Example 54, 6′-[2-Methyl-5-(5-methyl-4H-1,2,4-triazol-3-yl)phenyl]spiro[cyclobutane-1,3′-indol]-2′(1′H)-one], 18 nM.

In the case of `Cc1nnc(-c2ccc(C)c(-c3ccc4c(c3)NC(=O)C43CCCC3)c2)[nH]1` [Example 53, 6′-(2-Methyl-5-(5-methyl-4H-1,2,4-triazol-3-yl)phenyl)spiro[cyclopentane-1,3′-indolin]-2′-one], the IC50 turned out to be 7.5 nM. As for `Cc1ccc(C(=O)NC2CC2)cc1-c1cnc2c(c1)NC(=O)C21CCOCC1` [Example 47, N-Cyclopropyl-4-methyl-3-(2′-oxo-1′,2,2′,3,5,6-hexahydrospiro[pyran-4,3′-pyrrolo-[3,2-b]pyridin]-6′-yl)benzamide], the figure is 13 nM; as for `Cc1nnc(-c2ccc(C)c(-c3ccc4c(c3)NC(=O)C43CCOCC3)c2)[nH]1` [Example 59, 6-(2-Methyl-5-(5-methyl-4H-1,2,4-triazol-3-yl)phenyl)-2′,3′,5′,6′-tetrahydrospiro[indoline-3,4′-pyran]-2-one], 10 nM. To `Cc1ccc(C(=O)NC2CC2)cc1-c1ccc2c(c1)NC(=O)C21CCC(N2CCOCC2)CC1` (stereo not drawn) [Example 40, N-cyclopropyl-4-methyl-3-(4-morpholino-2′-oxospiro[cyclohexane-1,3′-indoline]-6′-yl)benzamide] belongs 1 nM; to `Cc1ccc(C(=O)NC2CC2)cc1-c1ncc2c(n1)NC(=O)C21CCCC1` [Example 52, N-Cyclopropyl-4-methyl-3-(6′-oxo-6′,7′-dihydrospiro[cyclopentane-1,5′-pyrrolo[2,3-c]pyrimidin]-2′-yl)benzamide], 72 nM. As for `Cc1nnc(-c2ccc(C)c(-c3ccc4c(c3)NC(=O)C43CCC(F)(F)CC3)c2)[nH]1` [Example 63, 4,4-Difluoro-6′-(2-methyl-5-(5-methyl-4H-1,2,4-triazol-3-yl)phenyl)spiro[cyclohexane-1,3′-indolin]-2′-one], the figure is 2 nM.

By IC50 is commonly meant the concentration at which inhibition is half-maximal.
